Data reported in patent publication US4510144A, “Methods of imparting immunomodulating activity with dihydrothiazolo purine derivatives” (Newport Pharmaceuticals International, priority 1982, dated 1985).
Entries after “also recorded” stand apart in the source; their conditions may differ.

What was measured:
[1] = tested on: splenocytes from athymic mice (theta positive cells); test: induction of theta positive cells in splenocytes from athymic (nude) mice in vitro; type: cell-based; conditions: in vitro
Source text: (4) Induction of theta positive cells in nude mice (in vitro).

[2] = tested on: murine spleen cells, Con A induced (T-cells); test: Con A induced lymphocyte proliferation in mouse spleen cells in vitro; type: cell-based, mouse (Balb/C); conditions: for activity at 25 µg/mL: drug 25,000 ng/ml; for effect on Con A induced proliferation (T-cell response), in words: in vitro
Source text: (§1) (1) Mitogen-(Lipopolysaccharide, LPS or Con A) induced lymphocyte proliferation using murine spleen cells (in vitro)
(§2) 1. […] LPS is a mitogen which acts preferentially on B-cells. […] Con A is considered a T-cell mitogen.
(§3) 1. Balb/C male mice, 7-8 weeks old, are used up to 20-24 weeks of age.
(§4) 2. The animals are sacrificed by cervical dislocation and the animals' left sides swabbed with 70% ethanol. An incision is made between the lower ribs and pelvis, laterally from front to back, and the skin retracted. Aseptic technique is to be observed from this point on.
(§5) 3. The spleen is gently removed with sterile forceps. […] When all spleens have been collected and cleaned they are placed in a second petri dish containing 3 ml cold RPMI.
(§6) 4. Spleen cell suspensions are prepared by gentle mincing of the tissue with a sterile blade and filtering through #100 stainless steel mesh.
(§7) 6. An aliquot of the above suspension is prepared for cell counting as follows: 0.1 ml of suspension is diluted to 1.0 ml with 3% acetic acid and let stand at room temperature for at least five minutes. The sample is then diluted 1:100 with "Isoton II" (Curtis-Matheson Co.) and counted in a coulter counter.
(§8) MURINE SPLENOCYTE STIMULATION WITH CONCANAVALIN A (CON A), LIPOPOLYSACCHARIDE (LPS), AND ALLOGENEIC SPLENOCYTES (LMC).
(§9) There is set forth below the standard procedure which should be modified according to the solubility and other properties of the particular compound tested.
(§10) Add ~10 ml RPMI to 1.79 g HEPES and vortex until completely dissolved. […] Allow to warm temperature before use.
5. Con A (Calbiochem)--100 mg/ml NaCl injection solution (McGaw), filter, aliquot in 1 ml, and store at -70° C.
(§11) 8. Tritiated thymidine (^3 H-TdR, Schwartz-Mann, 6 Ci/mM). Remove a slightly larger volume of ^3 H-TdR than needed from vial with a 1 cc syringe and place volume in the cap of a small sterile plastic tube. […] Vortex thoroughly before adding to plates.
(§12) 1. Animals are sacrificed by cervical dislocation killing one from each group and processing the cells individually before killing the next animal. Swab each animal with 70% ethanol before surgery. […] Use 8 vertical strokes (or enough to break up all tissue) with Teflon-tipped homogenizer. Filter each sample through a 100 mesh screen into a 50 ml tube. […] After all samples have been spun, vortex each briefly and let sit for 1 hour. Vortex each sample ~5 seconds, waiting ~10 seconds between each sample. Let sit 5 minutes, then pipet cell suspension into 5 ml (12×75 mm) tube being careful not to remove any sediment. Remove 50 ul cell suspension using micropipetter, carefully wipe pipet tip with kimwipe and pipet into 20 ml Isoton in Coulter counter vial, rinsing pipet several times in the Isoton. Add 6 drops of CyMet and swirl vial to mix. Use the following Coulter counter settings: Amplification-1, Threshold-10, and Aperture Current-1. Clean counter with Isoterge the morning of experiment and count background before standardizing with CH 0.60 Hematology Controls. After cell counts are obtained, dilute to 6×10^6 cells/ml with supplemented RPMI and aliquot into 3 tubes for the 3 assays.
(§13) 1. Pipet 100 μl control media (supplemented RPMI) or appropriate dilution of mitogen (starting with lowest concentration) into microtiter plate using Titertek multi-channel pipetter. Place plates in 37° C. CO2 incubator with CO2 set at 0.5 after each plate has been pipetted. Pipet 100 μl responder cells into wells starting with most dilute mitogen concentration. Place plates in incubator as they are filled and after all plates are in incubator, let sit for 10-20 minutes. Wrap plates with plastic wrap, recover with top, replace in incubator, and reset CO2 to ~0.05. Save ~50 ml supplemented RPMI at 4° C. for thymidine dilution. After ~44 hours warm the RPMI to 37° C. in incubator. Dilute tritiated Thymidine 1:100 in warmed RPMI. Use Titertek to add 50 μl Thymidine to each well. Treat plates as above and incubate overnight (~18 hours).

[3] = tested on: murine spleen cells, LPS induced (B-cells); test: LPS induced lymphocyte proliferation in mouse spleen cells in vitro; type: cell-based, mouse (Balb/C); conditions: for activity at 25 µg/mL: drug 25,000 ng/ml; for effect on B-cell response / LPS induced proliferation, in words: in vitro
Source text: as §1, §2, §3, §4, §5, §6, §7, §8, §9, §10
6. LPS (Sigma, E, coli serotype #011:84)--~1 mg/ml. […] Remove ~10 ml for dissolving HEPES (0.358 g) and filter HEPES solution. Add four 25 mg bottles of LPS to remaining media and incubate at 37° C. for 1 hour. Filter through 0.22 μm filters, add filtered HEPES, aliquot in 2 ml and store at -70° C.
as §11, §12
as §13, with “dilution.” for “dilution. After ~44 hours warm the RPMI to 37° C. in incubator. Dilute tritiated Thymidine 1:100 in warmed RPMI. Use Titertek to add 50 μl Thymidine to each well. Treat plates as above and incubate overnight (~18 hours).”

[4] = tested on: antibody production to sheep red blood cells (SRBC); test: antigen (SRBC) dependent antibody synthesis in vivo (IgM plaques); set-up: species or system Balb/C mice; conditions: for effect on antibody production in vivo, in words: SRBC immunized mice; for % change from control, antibody response to SRBC: Table X
Description: (3) Antigen (sheep red blood cell, SRBC) dependent antibody synthesis (in vivo)
as §9
1. A solution containing 500 μg/ml NPT is prepared by adding a preweighed amount of the drup powder to sterile BPS (phosphate buffered saline) and sonicating the solution for 30 minutes.
1. NPT drug solution is made by dissolving 500 μg NPT per mil PBS.
1. A 1.4% suspension of agarose in PBS (7 g in 500 ml) is autoclaved for 15 min.
1. Mice are immunized as follows: sheep blood (sheep #23) is received weekly from Hyland labs. It is asceptically collected in two volumes of Alseviers to one volume of blood.
6. The cell count is determined and the stock solution is diluted to 4×10^7 cells/ml. This final suspension is used for immunization.
7. Each mouse is immunized by i.v. injection into the lateral tail vein (warmed in a 50° C. water bath for veinous dilation) with 0.1 ml SRBC (sheep red blood cell) suspensions; the final concentration of SRBC's is 4×10^6 per mouse.
1. Mice are treated by i.p. injection on days […], 1, 2, and 3. A syringe (1 cc) is fitted with a one-half inch, 26 gauge needle. The needle is introduced at a 45° angle along the right side of the linea alba. A 0.2 ml volume is given to both drug and control treated groups.
2. Drug groups are given 0.2 ml of a desired concentration NPT solution which, for a 20 g mouse, is […].
1. Spleens are removed asceptically and placed individually in Falcon #2025 tissue culture tubes containing 3 ml MEM. The tubes are then stored on ice.
2. Spleens are homogenized in the same tube with a teflon pestle attached to a G. K. Heller variable speed reversible motor connected with a G. K. Heller GT-21 motor controller setting #6.
6. The cell count is obtained and the stock suspension is diluted to 1×10^7 cells/ml. The Coulter counter threshhold is set at 10. Red cells are lysed with three drops of Zap isoton.
1. Thirty-five hundredths gram agarose and 0.53 grams MEM powder are placed into an Erlenmeyer flask. Fifty ml of distilled H2 O is then added to the flask.
1. Five ml sheep blood (same batch as used for immunization) is washed three times in PBS using an IEC Clinical Standard Centrifuge, speed #4 (2800 RPM) for 10 min.
1. Agar plates are removed from refrigerator and allowed to warm to room temperature. They are labeled in triplicate for each experimental group.
2. Agar-filled tubes are removed from the water bath. One-tenth of the 10% SRBC's and 0.1 ml spleen cell suspension are added to each agar tube. The tubes are agitated on a Vortex mixer.
3. The contents of the tubes are poured immediately into agar base plates and swirled until a smooth layer is formed. The plates are placed on a level surface until the agar solidifies.
4. The plates are incubated at 37° C. in a humidified atmosphere of 5% CO2 and 95% air for 90 min.
6. Plates are removed from incubator and 1 ml of the diluted complement is added to each plate.
7. Plates are then incubated another 30-45 minutes at 37° C. Plates are then removed from incubator and counted using oblique light.

[5] = Mus musculus, Con A .375 μg/ml, read-out: Con A D/C (maximum values)
[6] = Mus musculus, B-cell, LPS 5 μg/ml, read-out: LPS D/C (maximum values)
[7] = 0.05 mg/kg, *P ≤ 0.001 where starred
[8] = 0.5 mg/kg, *P ≤ 0.001 where starred
[9] = 5.0 mg/kg, *P ≤ 0.001 where starred, NPT 16485 N.S.

| SMILES | activity at 25 µg/mL [2, 5] [%] | activity at 25 µg/mL [3, 6] [%] | effect on antibody production in vivo, in words [4] | % change from control, antibody response to SRBC [4, 7] | effect on B-cell response / LPS induced proliferation, in words [3] | % change from control, antibody response to SRBC [4, 8] | also measured |
| --- | --- | --- | --- | --- | --- | --- | --- |
| c1ccc([C@H]2CN3CCSC3=N2)cc1 [Levamisole, reference compound] |  |  |  |  |  |  | production of theta positive (T) cells, in words [1]: does not possess this property |
| Nc1ncnc2c1nc1n2CCS1 [NPT 16422, 3-amino-7,8-dihydrothiazolo-[3,2e]-purine] | 20 | 37 | capable of inhibiting |  |  |  | effect on Con A induced proliferation (T-cell response), in words [2]: potent inhibitors; also recorded: capable of inhibiting |
| CSc1ncnc2c1nc1n2CCS1 [NPT 16439, 3-methylmercapto-7,8-dihydrothiazolo-[3,2e]-purine] |  |  | potent inhibitor of antibody production | -40% |  |  | activity at 4.5 µg/mL ([2]; Mus musculus, drug 4,500 ng/ml, Con A .375 μg/ml, read-out: Con A D/C (maximum values)): 57%; effect on Con A induced proliferation (T-cell response), in words [2]: potent inhibitors; effect on Con A induced proliferation (T-cell response), in words ([2]; listed as 16439): capable of inhibiting; effect on Con A induced proliferation (T-cell response), in words ([2]; listed as Ib): inhibiting the T-cell response; activity at 4.5 µg/mL ([3]; Mus musculus, B-cell, drug 4,500 ng/ml, LPS 5 μg/ml, read-out: LPS D/C (maximum values)): 100%; effect on antibody production in vivo, in words ([4]; listed as 16439): capable of inhibiting; % change from control, antibody response to SRBC ([4]; dose = 0.2 mg/kg): -63% |
| O=c1c2nc3n(c2nc2n1CCS2)CCS3 [NPT 16449, 6-hydroxy-Bis-(3,4-dihydrothiazolo-8,9-dihydrothiazolo)-[3,2e-2,3f]purine] |  |  | enhancement of production of specific antibodies in vivo | +183% | enhance B-cell proliferation | +59% | activity at 21 µg/mL ([2]; Mus musculus, drug 21,000 ng/ml, Con A .375 μg/ml, read-out: Con A D/C (maximum values)): 100%; activity at 21 µg/mL ([3]; Mus musculus, B-cell, drug 21,000 ng/ml, LPS 5 μg/ml, read-out: LPS D/C (maximum values)): 157%; effect on B-cell response / LPS induced proliferation, in words ([3]; listed as IVa): stimulating the B-cell response |
| Oc1c2ncnc-2nc2n1CCS2 [NPT 16450, 6-hydroxy-7,8-dihydrothiazolo-[3,2a]-purine] | 107 | 118 |  | -64% |  | +15% | % change from control, antibody response to SRBC [4, 9]: +36% |
| CSc1nc(O)c2nc3n(c2n1)CCS3 [NPT 16472, 3-hydroxy-5-methylmercapto-7,8-dihydrothiazolo-[3,2e]-purine] |  |  |  |  | stimulating the B-cell response |  | activity at 0.01 µg/mL ([2]; Mus musculus, drug 10 ng/ml, Con A .375 μg/ml, read-out: Con A D/C (maximum values)): 100%; activity at 0.01 µg/mL ([3]; Mus musculus, B-cell, drug 10 ng/ml, LPS 5 μg/ml, read-out: LPS D/C (maximum values)): 131%; % change from control, antibody response to SRBC ([4]; dose = 0.035 mg/kg, P < 0.05): +13% |
| Oc1ncnc2nc3n(c12)CCS3 [NPT 16485, 6-hydroxy-7,8-dihydrothiazolo-[2,3f]-purine] | 118 | 185 | enhancement of production of specific antibodies in vivo | +28% | enhance B-cell proliferation | +134% | effect on B-cell response / LPS induced proliferation, in words ([3]; listed as IIa): stimulating the B-cell response; % change from control, antibody response to SRBC [4, 9]: +1.7% |
